Reference: patent US8426406B2, “Glucocorticoid receptor agonist comprising 2,2,4-trimethyl-6-phenyl-1,2-dihydroquinoline derivatives having substituted oxy group” (Santen Pharmaceutical Co., Ltd., priority 2008, dated 2013)

How the values were obtained:
Format in all cases: in vivo
[1] = system: allergic conjunctivitis model in mice; assay: Inhibitory effect on the vascular hyper-permeability in allergic conjunctivitis model; details: Mus musculus, 1% (W/V) test compound suspension instilled to the right eye three times before ovalbumin instillation, dye leakage vs vehicle, mean of 5-6 eyes, read-out: The inhibition ratio of the vascular hyper-permeability (%)
Method: In order to evaluate anti-allergic effect, inhibitory effect on the vascular hyper-permeability in allergic conjunctivitis model in mice was examined. This effect was calculated based on dye leakages of vehicle-treated group (control group) and test compound-treated group.
By adding 0.5% polysorbate 80/saline to the test compound, a 1% (W/V) test compound suspension was prepared.
1) Ovalbumin absorbed on aluminum hydroxide gel was dissolved in saline (20 μg ovalbumin/mL), and male BALE/c mice, 6 weeks old, were actively sensitized to the antigen by intraperitoneal injections of 500 μL of it.
2) On the 6th day from sensitization, sensitized mice were boosted by additional intraperitoneal injections of 500 μL ovalbumin absorbed on aluminum hydroxide gel (20 μg ovalbumin/mL).
3) On the 11th day, 12th day, 13th day, 14th day and 15th day from the first sensitization, allergic conjunctivitis were induced by installations to the right eyes of the mice of […] of 50% glycerol solution containing 15% (W/V) ovalbumin.
4) […] of test compound suspension per eye was instilled to the right eye of the above mice 15 min, 1 hr and 3 hrs before ovalbumin instillation (three times) on the 15th day from sensitization. In vehicle-treated group (control group), the mice were instilled with 0.5% polysorbate 80/saline in substitution for test compound suspension.
5) Just before ovalbumin instillation on the 15th day from sensitization, all animals received a tail intravenous injection of 0.1% Evans blue dye. The right periocular tissues of the mice, which were the leaked parts of dye, were collected 30 min after ovalbumin instillation. The dye was extracted from the tissues with the dye extraction liquid. Then the absorbance of the dye extract was measured. The dye leakage was calculated from the absorbance value, and the inhibition ratio of the vascular hyper-permeability of test compound-treated group was calculated according to calculation equation 1. The inhibition ratio of the vascular hyper-permeability of test compound-treated group(%)=(1−Ax/Ao)×100 (Calculation Equation 1) Ao: Dye leakage in vehicle-treated group (control group) Ax: Dye leakage in test compound-treated group (Test Results and Discussion)

[2] = system: choroidal neovascularization (CNV) model in rats; assay: Evaluation test for inhibitory effect of choroidal neovascularization (laser induced CNV model in rats); details: Brown Norway rats, 1% (w/v) suspension eye drops four times a day or 20 mg/mL subconjunctival injection (route not given), vs vehicle, mean of 7-8 eyes in 4 rats
Method: The choroidal neovascularization (CNV) model in rats is known as one of the popular methods for evaluating the CNV inhibitory effect of drugs. This method is reported in Graefe's Arch. Cli. Exp. Ophthalmol., 235, 313-319 (1997). According to this method, the CNV examinations were performed to evaluate the CNV inhibitory effect of test compounds by comparing the incidence rates of CNV in vehicle group (control group) with test compound-treated groups.
For eye drop administration, a 1% (w/v) test compound suspension was prepared by adding 0.5% polysorbate 80/saline to the test compound. For subconjunctival injection, a 20 mg/mL test compound suspension was prepared by adding 0.5% hydrogenated castor oil/saline to the test compound.
1) Brown Norway male rats (7-8 weeks, 140-240 g) were anesthetized with intramuscular injection (1 mL/kg) of the mixed solution (5% ketamine HCl: 2% xylazine HCl=7:1).
2) After mydriasis using tropicamide phenylephrine hydrochloride eye drops (trade name Mydrin P), laser photocoagulation of bruch's membrane in rats was performed with krypton laser photocoagulation machine. Laser irradiation was performed at 8-9 points per eye avoiding thick retinal blood vessels in ocular fundus and focusing on the depth of retina. The conditions were 100 μm spot size, 100 mW power, 0.1 second duration.
3) After laser photocoagulation, photographs of ocular fundus were taken and the laser photocoagulation (laser irradiation) points were confirmed.
1) In case of eye drops administration, a test compound suspension was administrated four times a day from laser irradiation day (the 1st day) to the 8th day. In case of subconjunctival injection, a 50 μL test compound suspension was injected into conjunctivae just after laser irradiation.
2) In vehicle group (control group), 0.5% polysorbate 80/saline or 0.5% hydrogenated castor oil/saline was used instead of a test compound suspension. And the test was performed according to the method 1).
1) 7 days after laser irradiation, 0.1 mL of 10% fluorescein was injected into rat tail vein and fluorescein angiography was performed.
2) When the fluorescent leakage was not detected in the fluorescent angiography, the spot was judged to be a negative spot. When the fluorescent leakage was detected, the spot was judged to be a positive spot. When the fluorescent leakage was detected as a little leakage, two spots were counted as one positive spot.
3) The neovascular incidence rate was calculated according to the equation 1. According to the equation 2, the ratio of neovascular incidence rate in test compound group to vehicle group was calculated. Neovascular incidence rate(%)=(Positive spots/all spots)×100 (Equation 1) Angiogenic inhibition ratio in test compound group(%)=(1−Ax/Ao)×100 (Equation 2)
Ao: Neovascular incidence rate in vehicle group (control group)
Ax: Neovascular incidence rate in test compound group

[3] = system: corneal disorder model in rats; assay: Test for therapeutic effects on corneal disorder (corneal disorder model associated with dry eye); details: male SD rats, exorbital lacrimal gland removed; 0.03% (W/V) ophthalmic suspension instilled 6 times a day for 14 days; fluorescein staining score; 8 eyes in 4 animals
Method: In order to evaluate the improvement effect of corneal disorder with dry eye of the present compounds, using male SD rats, corneal disorder models were produced according to the method of Fujihara et al. (Invest. Ophthalmol. Vis. Sci. 42 (1): 96-100 (2001)). After the production of the corneal disorder models, the improvement ratio of the corneal disorder was assessed according to the method of Murakami et al. (Journal of the eye 21 (1): 87-90 (2004)).
A 0.03% (W/V) test compound ophthalmic suspension was prepared by adding vehicle containing polysorbate 80 and the general additives to test compound.
1) Male SD rats were systemically anesthetized by an administration of Somnopentyl. Subsequently the exorbital lacrimal gland of each rat was removed and a corneal damage was induced over a period of 2 months.
2) The test compound ophthalmic suspension was instilled into both eyes 6 times a day for 14 days. In a control group, vehicle was instilled in the same way.
3) Fourteen days after the start of instillation, the damaged parts of the cornea were stained with fluorescein. For each of the upper, middle and lower parts of the cornea, the degree of fluorescein staining was evaluated by scoring according to the criteria shown below and the mean value of the total scores for each of the above-mentioned parts was calculated. The score range in each divided section is 0 to 3 and the minimum score unit is 0.5. 0.5 was provided as an intermediate value between each score 0, 1, 2, 3.
1: Scattered staining (each punctate staining being separated)
2: Moderate staining (a part of punctate staining being adjacent)
3: Heavy staining (each punctate staining being adjacent) Improvement ratio of test compound instillation group(%)=(Ao−Ax)/(Ao−An)×100 (Calculation Equation)
Ao: the mean value of corneal disorder score in vehicle instilled (control) group
Ax: the mean value of corneal disorder score in test compound instilled group
An: the mean value of corneal disorder score in normal rat group.

| SMILES | inhibition in vivo at 10000 µg/mL [1] [%] | Angiogenic inhibition ratio (%) [2] [%] | Improvement ratio of corneal disorder (%) [3] [%] |
| --- | --- | --- | --- |
| COc1cc(OC(=O)c2ccsc2)ccc1-c1ccc2c(c1COc1cc(F)ccc1C)C(C)=CC(C)(C)N2 [Compound 1-12, 5-(5-Fluoro-2-methylphenoxymethyl)-6-[2-methoxy-4-(thiophen-3-ylcarbonyloxy)phenyl]-2,2,4-trimethyl-1,2-dihydroquinoline] | 17 | 37 | 69 |
| COc1cc(OC(=O)c2ccco2)ccc1-c1ccc2c(c1COc1cc(F)ccc1C)C(C)=CC(C)(C)N2 [Compound 1-13, 5-(5-Fluoro-2-methylphenoxymethyl)-6-[4-(furan-2-ylcarbonyloxy)-2-methoxyphenyl]-2,2,4-trimethyl-1,2-dihydroquinoline] | 24 | 38 | 61 |
| COc1cc(OC(=O)c2cccnc2)ccc1-c1ccc2c(c1COc1cc([N+](=O)[O-])ccc1C)C(C)=CC(C)(C)N2 [Compound 1-72, 6-[2-Methoxy-4-(pyridin-3-ylcarbonyloxy)phenyl]-5-(2-methyl-5-nitrophenoxymethyl)-2,2,4-trimethyl-1,2-dihydroquinoline] | 21 | 28 | 67 |
| CCCS(=O)(=O)Oc1ccc(-c2ccc3c(c2CNc2ccccc2OC)C(C)=CC(C)(C)N3)c(OC)c1 [Compound 4-18, 5-(2-Methoxyphenylaminomethyl)-6-(2-methoxy-4-propylsulfonyloxyphenyl)-2,2,4-trimethyl-1,2-dihydroquinoline] | 21 | 35 | 56 |
